Publication PMC2953793 (Cancer chemotherapy and pharmacology, 2009)
“And” between values parts separate entries of the source, which are not always exact repeats. Equal values may be shown once. Read-outs that look alike come from different tables or passages of the source.

Tests used:
[1] = tested on: human colon cancer and lung cancer xenograft models; details: human colon cancer (ref 12) and lung cancer xenograft models (ref 1); cited from earlier work
PARP [2] = tested on: PARP
PARP [3] = details: cited from earlier work
PARP [4] = details: phase 0 study, National Cancer Institute; single oral dose of 25 or 50 mg; cited from earlier work
[5] = CD-1 mice; cited from earlier work
[6] = individual animals, single 5 mg/kg dose, 5 mg/kg
[7] = individual animals, single 5 mg/kg dose, model parameter, 5 mg/kg
[8] = mean of three animals, single 5 mg/kg dose, model parameter

## C[C@]1(c2nc3c(C(N)=O)cccc3[nH]2)CCCN1 [ABT-888]
[1]
  potentiation of radiation: potentiates radiation
PARP [2]; individual animals, PBMCs, 2 h post versus pre-treatment, single oral 5 mg/kg
  % PARP inhibition: 52% and 71% and 78%
PARP [2]; mean ± SD of three animals, 2 h after a single dose
  reduction of PARP activity in PBMCs compared with pre-treatment levels: 67 ± 13%
PARP [2]; range across animals, 2 h after single oral dose 5 mg/kg
  PARP inhibition in NHP PBMCs: 52–78%
PARP [3]
  concentrations required for ex vivo PARP inhibition in PBMCs: 0.1 to 0.3 µM
PARP [4]
  PARP inhibition in PBMCs and biopsied tumors: > 90%
[6]
  V1/F model-estimated apparent volume of distribution: 40.0 L/kg and 24.2 L/kg
  t1/2P model-estimated plasma half-life: 3.9 h and 4.3 h
[7]
  K12 rate constant for transfer from plasma to CSF: 7e-06 h⁻¹ and 4.7e-06 h⁻¹ and 1.65e-05 h⁻¹
  K21 rate constant for transfer from CSF to plasma: 0.805 h⁻¹ and 0.420 h⁻¹ and 0.913 h⁻¹
  Ka absorption rate constant: 12.5 h⁻¹ and 53.5 h⁻¹ and 44.2 h⁻¹
  Ke plasma elimination rate constant: 0.18 h⁻¹ and 0.16 h⁻¹
  τ time-delay for absorption of oral drug: 0.76 h and 0.78 h and 2.75 h
male, rhesus monkey, plasma, po, 5 mg/kg, V1/F model-estimated apparent volume of distribution, individual animals, single 5 mg/kg dose
  Vd/F: 41.5 L/kg
[8]
  K12 rate constant for transfer from plasma to CSF: 9.4e-06 h⁻¹
  K21 rate constant for transfer from CSF to plasma: 0.71 h⁻¹
  Ka absorption rate constant: 36.7 h⁻¹
  τ time-delay for absorption of oral drug: 1.43 h
Range across animals, oral 5 mg/kg
  time delay for absorption: 46 to 165 min
[5]
  accumulation in intracranial tumors versus normal brain: preferentially accumulate in intracranial tumors versus normal brain
